Measured values reported in ChEMBL document CHEMBL1201862, “PubChem BioAssay data set” (2004).
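96-well plates; 48 h exposure; 5 concentrations. Endpoints by linear interpolation between flanking doses. Not reached: highest tested concentration assigned. Here, GI50 denotes the concentration required for 50% inhibition of growth.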 Active and inactive are the calls of the source. Rule as the data show it: active = GI50 up to about 1.1 µM and inactive = higher.

Key:
Assay in all cases: inhibition of tumour cell growth, NCI panel, 48 h
ACHN = system: ACHN
CCRF-CEM = system: CCRF-CEM
DU-145 = system: DU-145
EKVX = system: EKVX
HCC 2998 = system: HCC 2998
K562 = system: K562
NCI-H23 = system: NCI-H23
OVCAR-4 = system: OVCAR-4
PC-3 = system: PC-3
RPMI-8226 = system: RPMI-8226
SK-MEL-28 = system: SK-MEL-28
SK-MEL-5 = system: SK-MEL-5
SNB-75 = system: SNB-75
SW-620 = system: SW-620
TK-10 = system: TK-10
UO-31 = system: UO-31
MCF7 = system: MCF7
NCI-H226 = system: NCI-H226

Compound: CCC1(CC)C(=O)OC(=O)C1(CC)CC
- GI50 (ACHN): > 100 µM (inactive)
- GI50 (CCRF-CEM): > 100 µM (inactive)
- GI50 (DU-145): > 100 µM (inactive)
- GI50 (EKVX): > 100 µM (inactive)
- GI50 (HCC 2998): > 100 µM (inactive)
- GI50 (K562): > 100 µM (inactive)
- GI50 (NCI-H23): > 100 µM (inactive)
- GI50 (OVCAR-4): > 100 µM (inactive)
- GI50 (PC-3): > 100 µM (inactive)
- GI50 (RPMI-8226): > 100 µM (inactive)
- GI50 (SK-MEL-28): > 100 µM (inactive)
- GI50 (SK-MEL-5): > 100 µM (inactive)
- GI50 (SNB-75): > 100 µM (inactive)
- GI50 (SW-620): > 100 µM (inactive)
- GI50 (TK-10): > 100 µM (inactive)
- GI50 (UO-31): > 100 µM (inactive)

Compound: COC(=O)c1c2c(cc3c1CC1(Cc4cc5c(c(C(C)=O)c4C1)CCCC5)C3)CCCC2 (centres undefined)
- GI50 (ACHN): 44.1 µM (inactive)
- GI50 (CCRF-CEM): 29.2 µM (inactive)
- GI50 (EKVX): > 100 µM (inactive)
- GI50 (HCC 2998): > 100 µM (inactive)
- GI50 (K562): 23.4 µM (inactive)
- GI50 (MCF7): 85.1 µM (inactive)
- GI50 (NCI-H226): > 100 µM (inactive)
- GI50 (NCI-H23): > 100 µM (inactive)
- GI50 (OVCAR-4): > 100 µM (inactive)
- GI50 (PC-3): 24.6 µM (inactive)
- GI50 (RPMI-8226): 29.6 µM (inactive)
- GI50 (SK-MEL-5): 34.1 µM (inactive)
- GI50 (TK-10): > 100 µM (inactive)

Compound: CCc1[nH]c(=O)c2oc3cc4ccccc4cc3c2c1C(=O)O
- GI50 (ACHN): > 10 µM (inactive)
- GI50 (DU-145): 3.91 µM (inactive)
- GI50 (EKVX): > 10 µM (inactive)
- GI50 (HCC 2998): > 10 µM (inactive)
- GI50 (NCI-H226): > 10 µM (inactive)
- GI50 (OVCAR-4): > 10 µM (inactive)
- GI50 (PC-3): > 10 µM (inactive)
- GI50 (SNB-75): > 10 µM (inactive)
- GI50 (SW-620): > 10 µM (inactive)
- GI50 (TK-10): > 10 µM (inactive)
- GI50 (UO-31): > 10 µM (inactive)

Compound: S=C1NCCN1C(=S)Nc1ccccc1
- GI50 (ACHN): > 100 µM (inactive)
- GI50 (CCRF-CEM): 62.2 µM (inactive)
- GI50 (DU-145): > 100 µM (inactive)
- GI50 (EKVX): 33.9 µM (inactive)
- GI50 (HCC 2998): 65.5 µM (inactive)
- GI50 (K562): 74.6 µM (inactive)
- GI50 (MCF7): > 100 µM (inactive)
- GI50 (NCI-H226): 51.4 µM (inactive)
- GI50 (NCI-H23): 60.4 µM (inactive)
- GI50 (OVCAR-4): 21.9 µM (inactive)
- GI50 (SK-MEL-28): 56.2 µM (inactive)
- GI50 (SK-MEL-5): > 100 µM (inactive)
- GI50 (SNB-75): 32.4 µM (inactive)
- GI50 (SW-620): > 100 µM (inactive)
- GI50 (TK-10): 95.9 µM (inactive)
- GI50 (UO-31): 36.7 µM (inactive)

Compound: CC1=CC(=O)c2cccc(NC3=NCCO3)c21
- GI50 (ACHN): 86.7 µM (inactive)
- GI50 (CCRF-CEM): 42 µM (inactive)
- GI50 (DU-145): 74.1 µM (inactive)
- GI50 (EKVX): > 100 µM (inactive)
- GI50 (HCC 2998): 33.4 µM (inactive)
- GI50 (K562): 34.5 µM (inactive)
- GI50 (NCI-H226): 29 µM (inactive)
- GI50 (NCI-H23): 43.5 µM (inactive)
- GI50 (OVCAR-4): 78.7 µM (inactive)
- GI50 (PC-3): 46.6 µM (inactive)
- GI50 (RPMI-8226): 45.1 µM (inactive)
- GI50 (SK-MEL-28): 78.7 µM (inactive)
- GI50 (SK-MEL-5): 23.2 µM (inactive)
- GI50 (SNB-75): 52.6 µM (inactive)
- GI50 (SW-620): > 100 µM (inactive)
- GI50 (TK-10): > 100 µM (inactive)
- GI50 (UO-31): 76.6 µM (inactive)

Compound: O=S(=O)(N/C(=N\O)Nc1ccc(Cl)cc1)c1cc2ccccc2o1
- GI50 (ACHN): 19.5 µM (inactive)
- GI50 (CCRF-CEM): 22.1 µM (inactive)
- GI50 (DU-145): 47.2 µM (inactive)
- GI50 (EKVX): 18.6 µM (inactive)
- GI50 (K562): 11.1 µM (inactive)
- GI50 (NCI-H226): 33.4 µM (inactive)
- GI50 (NCI-H23): 18 µM (inactive)
- GI50 (OVCAR-4): 17.9 µM (inactive)
- GI50 (PC-3): 25.4 µM (inactive)
- GI50 (SK-MEL-28): 17.9 µM (inactive)
- GI50 (SK-MEL-5): 15.3 µM (inactive)
- GI50 (SNB-75): 38.1 µM (inactive)
- GI50 (SW-620): 23.1 µM (inactive)
- GI50 (TK-10): 28.8 µM (inactive)
- GI50 (UO-31): 46.7 µM (inactive)

Compound: O=C(NN=C1NCCCCN1)Nc1ccc(Cl)cc1
- GI50 (ACHN): > 100 µM (inactive)
- GI50 (CCRF-CEM): 47.2 µM (inactive)
- GI50 (EKVX): > 100 µM (inactive)
- GI50 (HCC 2998): > 100 µM (inactive)
- GI50 (K562): 33 µM (inactive)
- GI50 (MCF7): > 100 µM (inactive)
- GI50 (NCI-H226): 85.1 µM (inactive)
- GI50 (NCI-H23): > 100 µM (inactive)
- GI50 (OVCAR-4): > 100 µM (inactive)
- GI50 (PC-3): 73.5 µM (inactive)
- GI50 (RPMI-8226): 45.1 µM (inactive)
- GI50 (SK-MEL-28): > 100 µM (inactive)
- GI50 (SK-MEL-5): > 100 µM (inactive)
- GI50 (SNB-75): 31.6 µM (inactive)
- GI50 (SW-620): > 100 µM (inactive)
- GI50 (TK-10): > 100 µM (inactive)
- GI50 (UO-31): > 100 µM (inactive)

Compound: C[C@]12CC[C@H]3[C@@H](CCC4=C(Br)C(=O)C=C[C@@]43O)[C@@H]1CCC2=O
- GI50 (ACHN): 40.6 µM (inactive)
- GI50 (CCRF-CEM): 0.957 µM (active)
- GI50 (DU-145): 20.9 µM (inactive)
- GI50 (EKVX): 61.2 µM (inactive)
- GI50 (K562): 32.7 µM (inactive)
- GI50 (MCF7): 38.9 µM (inactive)
- GI50 (NCI-H226): > 100 µM (inactive)
- GI50 (NCI-H23): 17.8 µM (inactive)
- GI50 (OVCAR-4): 33.3 µM (inactive)
- GI50 (PC-3): 37.8 µM (inactive)
- GI50 (RPMI-8226): 33.7 µM (inactive)
- GI50 (SK-MEL-28): 94.2 µM (inactive)
- GI50 (SK-MEL-5): 28.2 µM (inactive)
- GI50 (SW-620): 26.8 µM (inactive)
- GI50 (TK-10): 36.6 µM (inactive)
- GI50 (UO-31): 42.2 µM (inactive)

Compound: Cc1cc(C)c(C(=O)c2nnc3ccccc3c2N)c(C)c1
- GI50 (ACHN): 23.1 µM (inactive)
- GI50 (CCRF-CEM): 31 µM (inactive)
- GI50 (DU-145): 27 µM (inactive)
- GI50 (NCI-H226): 16.5 µM (inactive)
- GI50 (NCI-H23): 22.1 µM (inactive)
- GI50 (PC-3): 17.4 µM (inactive)
- GI50 (RPMI-8226): 24.9 µM (inactive)
- GI50 (SK-MEL-28): 17 µM (inactive)
- GI50 (SK-MEL-5): 13.5 µM (inactive)
- GI50 (SNB-75): 27.5 µM (inactive)
- GI50 (SW-620): 26.7 µM (inactive)

Compound: CC1=NNC(=O)C1C1CC(c2c[nH]c3ccccc23)=NNC1=S (centres undefined)
- GI50 (ACHN): > 100 µM (inactive)
- GI50 (CCRF-CEM): 28.6 µM (inactive)
- GI50 (DU-145): > 100 µM (inactive)
- GI50 (EKVX): 28.4 µM (inactive)
- GI50 (K562): 48.5 µM (inactive)
- GI50 (NCI-H226): > 100 µM (inactive)
- GI50 (NCI-H23): 64 µM (inactive)
- GI50 (PC-3): > 100 µM (inactive)
- GI50 (RPMI-8226): 36.2 µM (inactive)
- GI50 (SK-MEL-28): > 100 µM (inactive)
- GI50 (SK-MEL-5): > 100 µM (inactive)
- GI50 (SNB-75): > 100 µM (inactive)
- GI50 (SW-620): > 100 µM (inactive)
- GI50 (TK-10): > 100 µM (inactive)
- GI50 (UO-31): 30.6 µM (inactive)

Compound: NS(=O)(=O)c1nnc(NC(=O)C23CC4CC(CC(C4)C2)C3)s1
- GI50 (ACHN): > 100 µM (inactive)
- GI50 (DU-145): > 100 µM (inactive)
- GI50 (EKVX): > 100 µM (inactive)
- GI50 (HCC 2998): > 100 µM (inactive)
- GI50 (K562): > 100 µM (inactive)
- GI50 (MCF7): > 100 µM (inactive)
- GI50 (NCI-H226): > 100 µM (inactive)
- GI50 (NCI-H23): > 100 µM (inactive)
- GI50 (OVCAR-4): 0.101 µM (active)
- GI50 (RPMI-8226): 88.9 µM (inactive)
- GI50 (SK-MEL-28): > 100 µM (inactive)
- GI50 (SK-MEL-5): 96.2 µM (inactive)
- GI50 (SW-620): > 100 µM (inactive)
- GI50 (TK-10): > 100 µM (inactive)
- GI50 (UO-31): > 100 µM (inactive)

Compound: CC1CC(NN)=Nc2ccccc2N1 (centres undefined)
- GI50 (ACHN): > 100 µM (inactive)
- GI50 (CCRF-CEM): 40.3 µM (inactive)
- GI50 (DU-145): > 100 µM (inactive)
- GI50 (EKVX): > 100 µM (inactive)
- GI50 (K562): 49.2 µM (inactive)
- GI50 (NCI-H226): > 100 µM (inactive)
- GI50 (NCI-H23): > 100 µM (inactive)
- GI50 (OVCAR-4): > 100 µM (inactive)
- GI50 (PC-3): > 100 µM (inactive)
- GI50 (RPMI-8226): 65.9 µM (inactive)
- GI50 (SK-MEL-28): > 100 µM (inactive)
- GI50 (SK-MEL-5): > 100 µM (inactive)
- GI50 (SW-620): > 100 µM (inactive)
- GI50 (TK-10): > 100 µM (inactive)
- GI50 (UO-31): > 100 µM (inactive)

Compound: CN1CCC2(CC1)/C(=N/C1CCCCC1)NC(=S)N2c1ccccc1
- GI50 (ACHN): 89.3 µM (inactive)
- GI50 (CCRF-CEM): > 100 µM (inactive)
- GI50 (DU-145): > 100 µM (inactive)
- GI50 (EKVX): > 100 µM (inactive)
- GI50 (HCC 2998): > 100 µM (inactive)
- GI50 (K562): > 100 µM (inactive)
- GI50 (MCF7): > 100 µM (inactive)
- GI50 (NCI-H226): > 100 µM (inactive)
- GI50 (NCI-H23): > 100 µM (inactive)
- GI50 (OVCAR-4): > 100 µM (inactive)
- GI50 (RPMI-8226): > 100 µM (inactive)
- GI50 (SK-MEL-28): > 100 µM (inactive)
- GI50 (SK-MEL-5): > 100 µM (inactive)
- GI50 (SNB-75): > 100 µM (inactive)
- GI50 (SW-620): > 100 µM (inactive)
- GI50 (TK-10): > 100 µM (inactive)
- GI50 (UO-31): > 100 µM (inactive)
